Data taken from ChEMBL document CHEMBL4673259, “Discovery of isoquinolinone and naphthyridinone-based inhibitors of poly(ADP-ribose) polymerase-1 (PARP1) as anticancer agents: Structure activity relationship and preclinical characterization” (Bioorg Med Chem, 2020).

Legend:
[1] = Tmax in BALB/c mouse at 10 mg/kg, po measured up to 24 hrs by LC-MS/MS analysis; assay type: ADME, organism-based; conditions: in vivo
[2] = Tmax in BALB/c mouse at 1 mg/kg, iv measured up to 24 hrs by LC-MS/MS analysis; assay type: ADME, organism-based; conditions: in vivo
CYP3A4 = CYP3A4 (Homo sapiens, UniProt P08684); experiment: Inhibition of CYP3A4 (unknown origin) at 10 uM relative to control; assay type: ADME
CYP3A4, sequence (P08684 whole entry): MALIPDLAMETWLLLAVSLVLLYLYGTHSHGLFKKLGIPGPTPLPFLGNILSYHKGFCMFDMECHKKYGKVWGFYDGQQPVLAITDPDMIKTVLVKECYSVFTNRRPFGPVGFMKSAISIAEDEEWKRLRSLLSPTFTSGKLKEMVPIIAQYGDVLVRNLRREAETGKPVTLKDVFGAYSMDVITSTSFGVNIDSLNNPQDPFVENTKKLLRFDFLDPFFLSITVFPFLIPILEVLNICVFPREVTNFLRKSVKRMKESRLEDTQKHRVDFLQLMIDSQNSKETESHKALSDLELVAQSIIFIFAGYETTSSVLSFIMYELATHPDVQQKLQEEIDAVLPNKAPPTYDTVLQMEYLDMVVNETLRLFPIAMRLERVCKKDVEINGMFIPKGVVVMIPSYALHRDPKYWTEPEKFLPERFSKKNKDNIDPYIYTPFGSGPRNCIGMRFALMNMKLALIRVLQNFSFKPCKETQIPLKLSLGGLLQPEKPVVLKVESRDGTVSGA

[3] = Metabolic stability of the compound in dog plasma measured up to 4 hrs; assay type: ADME, cell-free, Canis lupus familiaris; conditions: read-out: Stabilty
MDA-MB-436 [4] = experiment: Anticancer activity against human MDA-MB-436 cells harboring BRCA mutant xenografted in po dosed SCID/nude mouse assessed as tumor growth regression administered bid and measured up to 5 weeks post-drug administration; assay type: functional, organism-based; conditions: dose 0.015-0.15 mg/kg, time weeks <=5
[5] = Toxicity against SCID/nude mouse xenografted with human CAPAN-1 cells harboring BRCA mutant assessed as body weight loss at 0.15 mg/kg, po bid for 12 days co-administered with 35 mg/kg, po TMZ; assay type: organism-based; conditions: in vivo, 288 h, time 12 day
[6] = target: Poly [ADP-ribose] polymerase 1 (Homo sapiens, UniProt P09874); experiment: Inhibition of PARP1 in human MDA-MB-436 cells assessed as inhibition of PARylation at 10 nM incubated for 1 hr by chemiluminescence assay; assay type: cell-based
Poly [ADP-ribose] polymerase 1, sequence (P09874 whole entry): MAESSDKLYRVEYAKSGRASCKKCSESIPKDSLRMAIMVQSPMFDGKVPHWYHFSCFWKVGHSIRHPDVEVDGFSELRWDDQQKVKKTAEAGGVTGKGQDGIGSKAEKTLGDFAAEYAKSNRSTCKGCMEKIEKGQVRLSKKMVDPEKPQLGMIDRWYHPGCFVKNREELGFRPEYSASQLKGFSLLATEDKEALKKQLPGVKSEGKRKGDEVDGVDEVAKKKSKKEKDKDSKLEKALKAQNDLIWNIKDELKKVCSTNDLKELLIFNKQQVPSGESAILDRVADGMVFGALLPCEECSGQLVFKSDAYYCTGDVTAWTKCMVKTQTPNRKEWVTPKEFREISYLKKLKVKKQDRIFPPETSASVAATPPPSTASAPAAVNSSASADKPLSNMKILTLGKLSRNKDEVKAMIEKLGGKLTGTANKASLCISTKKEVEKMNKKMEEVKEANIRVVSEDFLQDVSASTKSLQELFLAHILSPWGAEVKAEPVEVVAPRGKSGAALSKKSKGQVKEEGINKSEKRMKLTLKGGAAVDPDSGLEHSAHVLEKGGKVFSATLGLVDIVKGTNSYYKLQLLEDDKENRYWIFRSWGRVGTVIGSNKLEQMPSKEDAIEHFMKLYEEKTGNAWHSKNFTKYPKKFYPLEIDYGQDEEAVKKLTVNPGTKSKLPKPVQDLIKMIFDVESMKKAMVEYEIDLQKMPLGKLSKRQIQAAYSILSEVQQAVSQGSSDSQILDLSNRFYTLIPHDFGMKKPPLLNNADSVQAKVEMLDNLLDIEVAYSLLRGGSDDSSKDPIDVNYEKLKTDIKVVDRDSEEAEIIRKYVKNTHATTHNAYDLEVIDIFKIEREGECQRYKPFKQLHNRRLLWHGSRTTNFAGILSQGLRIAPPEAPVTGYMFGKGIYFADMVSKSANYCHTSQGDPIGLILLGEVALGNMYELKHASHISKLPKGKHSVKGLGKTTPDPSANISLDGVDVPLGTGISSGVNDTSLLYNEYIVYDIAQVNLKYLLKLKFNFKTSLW

[7] = Volume of distribution at steady state in BALB/c mouse at 1 mg/kg, iv measured up to 24 hrs by LC-MS/MS analysis; assay type: ADME, organism-based; conditions: in vivo, read-out: Vdss
MDA-MB-436 [8] = experiment: Anticancer activity against human MDA-MB-436 cells harboring BRCA mutant xenografted in SCID/nude mouse assessed as tumor growth regression at 0.015 mg/kg, po bid and measured up to 5 weeks post-drug administration; assay type: functional; conditions: MDA-MB-436, po, 840 h, time weeks <=5
[9] = target: Poly [ADP-ribose] polymerase tankyrase-1 (Homo sapiens, UniProt O95271); experiment: Inhibition of TNKS1 (unknown origin)
Poly [ADP-ribose] polymerase tankyrase-1, sequence (O95271 whole entry): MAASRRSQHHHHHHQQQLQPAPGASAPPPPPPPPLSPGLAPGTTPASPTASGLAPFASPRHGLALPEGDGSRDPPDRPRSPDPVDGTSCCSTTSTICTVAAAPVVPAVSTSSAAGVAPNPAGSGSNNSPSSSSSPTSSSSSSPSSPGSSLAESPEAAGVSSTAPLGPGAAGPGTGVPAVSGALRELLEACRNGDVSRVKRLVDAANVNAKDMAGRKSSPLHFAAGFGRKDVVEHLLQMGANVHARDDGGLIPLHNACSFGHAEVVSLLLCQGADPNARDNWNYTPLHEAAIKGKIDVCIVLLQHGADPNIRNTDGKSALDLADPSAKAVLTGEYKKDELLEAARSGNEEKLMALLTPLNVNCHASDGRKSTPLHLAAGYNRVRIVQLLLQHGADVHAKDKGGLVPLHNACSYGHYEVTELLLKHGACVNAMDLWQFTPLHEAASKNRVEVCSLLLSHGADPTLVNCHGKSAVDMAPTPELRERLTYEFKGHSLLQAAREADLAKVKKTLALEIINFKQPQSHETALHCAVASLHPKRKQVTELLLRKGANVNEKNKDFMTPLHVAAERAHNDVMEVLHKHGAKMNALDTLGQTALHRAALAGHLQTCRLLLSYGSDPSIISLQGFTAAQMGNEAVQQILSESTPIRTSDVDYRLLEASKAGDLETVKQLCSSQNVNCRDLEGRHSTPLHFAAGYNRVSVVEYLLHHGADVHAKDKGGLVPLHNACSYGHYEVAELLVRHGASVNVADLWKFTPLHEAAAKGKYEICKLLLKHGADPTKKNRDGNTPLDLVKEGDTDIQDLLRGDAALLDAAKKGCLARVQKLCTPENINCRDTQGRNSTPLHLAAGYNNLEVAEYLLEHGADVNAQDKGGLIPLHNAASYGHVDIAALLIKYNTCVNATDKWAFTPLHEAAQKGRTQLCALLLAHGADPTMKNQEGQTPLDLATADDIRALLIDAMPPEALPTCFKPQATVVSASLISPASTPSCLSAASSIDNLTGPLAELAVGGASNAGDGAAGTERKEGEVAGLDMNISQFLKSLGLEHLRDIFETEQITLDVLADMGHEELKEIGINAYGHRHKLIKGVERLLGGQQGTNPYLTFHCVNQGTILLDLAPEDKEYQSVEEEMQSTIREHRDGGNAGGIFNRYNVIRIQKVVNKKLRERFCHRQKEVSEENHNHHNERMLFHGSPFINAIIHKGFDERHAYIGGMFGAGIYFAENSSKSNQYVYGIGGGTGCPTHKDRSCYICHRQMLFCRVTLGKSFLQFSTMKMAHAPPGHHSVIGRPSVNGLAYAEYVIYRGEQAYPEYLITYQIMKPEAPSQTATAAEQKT

CYP2C9 = CYP2C9 (Homo sapiens, UniProt P11712); experiment: Inhibition of CYP2C9 (unknown origin) at 10 uM relative to control; assay type: ADME
CYP2C9, sequence (P11712 whole entry): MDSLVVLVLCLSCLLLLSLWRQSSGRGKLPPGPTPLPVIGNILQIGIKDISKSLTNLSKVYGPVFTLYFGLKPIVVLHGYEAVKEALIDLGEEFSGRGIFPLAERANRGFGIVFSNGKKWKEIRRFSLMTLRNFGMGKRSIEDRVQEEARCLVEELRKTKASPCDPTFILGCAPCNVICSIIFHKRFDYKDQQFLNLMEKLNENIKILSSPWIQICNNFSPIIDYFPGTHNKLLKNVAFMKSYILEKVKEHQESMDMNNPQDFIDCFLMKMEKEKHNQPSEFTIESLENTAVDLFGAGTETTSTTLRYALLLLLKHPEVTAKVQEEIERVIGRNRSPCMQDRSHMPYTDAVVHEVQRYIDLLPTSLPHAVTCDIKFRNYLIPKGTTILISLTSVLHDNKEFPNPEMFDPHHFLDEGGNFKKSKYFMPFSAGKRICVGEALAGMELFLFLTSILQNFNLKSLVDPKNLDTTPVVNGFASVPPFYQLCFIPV

MCF7 = experiment: Cytotoxicity against human MCF7 cells harboring wild type BRCA at 1000 nM relative to control; assay type: cell-based; conditions: mcf7, 1 µM
CAPAN-1 = experiment: Antitumor activity against human CAPAN1 cells xenografted in SCID/nude mouse assessed as tumor growth inhibition at 0.1 mg/kg, po bid measured up to 5 weeks post drug administration; assay type: functional; conditions: CAPAN-1, po, 840 h, time weeks <=5
CYP2D6 = CYP2D6 (Homo sapiens, UniProt P10635); experiment: Inhibition of CYP2D6 (unknown origin) at 10 uM relative to control; assay type: ADME
CYP2D6, sequence (P10635 whole entry): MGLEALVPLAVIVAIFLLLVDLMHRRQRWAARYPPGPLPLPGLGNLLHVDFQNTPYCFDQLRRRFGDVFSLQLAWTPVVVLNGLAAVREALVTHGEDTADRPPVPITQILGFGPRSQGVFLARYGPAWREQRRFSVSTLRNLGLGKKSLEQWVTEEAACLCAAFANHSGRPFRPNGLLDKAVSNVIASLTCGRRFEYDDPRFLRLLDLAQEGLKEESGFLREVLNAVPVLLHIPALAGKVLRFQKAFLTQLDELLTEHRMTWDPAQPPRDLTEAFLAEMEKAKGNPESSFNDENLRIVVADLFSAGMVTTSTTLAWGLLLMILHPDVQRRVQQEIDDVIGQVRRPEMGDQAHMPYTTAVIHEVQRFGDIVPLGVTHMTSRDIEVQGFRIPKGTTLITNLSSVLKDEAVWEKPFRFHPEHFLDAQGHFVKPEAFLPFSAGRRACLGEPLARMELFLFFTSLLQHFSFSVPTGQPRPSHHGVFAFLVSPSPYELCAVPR

MDA-MB-436 [10] = experiment: Potentiation of anticancer activity against human MDA-MB-436 cells harboring BRCA mutant xenografted in SCID/nude mouse assessed as tumor growth inhibition at 0.15 mg/kg, po bid for 12 days co-administered with […] measured up to 9 weeks post drug administration; assay type: functional; conditions: MDA-MB-436, po, time weeks <=9
CYP1A2 = CYP1A2 (Homo sapiens, UniProt P05177); experiment: Inhibition of CYP1A2 (unknown origin) at 10 uM relative to control; assay type: ADME
CYP1A2, sequence (P05177 whole entry): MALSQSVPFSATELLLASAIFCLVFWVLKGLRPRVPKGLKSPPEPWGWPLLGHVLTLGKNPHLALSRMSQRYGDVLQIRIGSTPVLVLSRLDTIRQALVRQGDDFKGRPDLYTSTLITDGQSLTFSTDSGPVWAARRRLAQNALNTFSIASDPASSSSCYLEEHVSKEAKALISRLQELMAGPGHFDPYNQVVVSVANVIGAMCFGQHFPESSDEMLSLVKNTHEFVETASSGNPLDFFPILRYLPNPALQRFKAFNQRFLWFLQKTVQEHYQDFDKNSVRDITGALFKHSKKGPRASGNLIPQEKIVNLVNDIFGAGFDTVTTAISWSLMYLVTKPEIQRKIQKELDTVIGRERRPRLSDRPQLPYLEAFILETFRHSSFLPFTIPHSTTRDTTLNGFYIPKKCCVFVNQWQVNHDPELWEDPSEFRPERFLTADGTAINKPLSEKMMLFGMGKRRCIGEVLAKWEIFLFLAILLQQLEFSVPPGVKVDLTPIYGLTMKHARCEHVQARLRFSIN

[11] = Protein binding in rat plasma; assay type: ADME, cell-free; conditions: read-out: PPB (converted)
MDA-MB-436 [12] = experiment: Anticancer activity against human MDA-MB-436 cells harboring BRCA mutant xenografted in SCID/nude mouse assessed as tumor growth regression at 0.15 mg/kg, po bid and measured up to 5 weeks post-drug administration; assay type: functional; conditions: MDA-MB-436, po, 840 h, time weeks <=5
[13] = Metabolic stability of the compound in mouse plasma measured up to 4 hrs; assay type: ADME, cell-free; conditions: read-out: Stabilty

Compound: N#Cc1ccc(N2CCN([C@H]3C=C(c4cc5ncccc5c(=O)[nH]4)CC3)CC2)cc1
- Tmax [1]: 60 min
- Tmax [2]: 4.8 min
- inhibition at 10 µM (CYP3A4): ≤ 23%
- remaining at 4 h [3]: 80%
- Activity (MDA-MB-436 [4]): Dose-dependent effect
- Activity [5]: Non-Toxic
- inhibition [6]: 82%
- Vd [7]: 0.2 L/kg
- inhibition in vivo at 0.015 mg/kg (MDA-MB-436 [8]): 50%
- IC50 [9]: 769 nM
- inhibition at 10 µM (CYP2C9): ≤ 23%
- Activity (MCF7): 36%
- inhibition in vivo at 0.1 mg/kg (CAPAN-1): 46.1%
- inhibition at 10 µM (CYP2D6): ≤ 23%
- inhibition in vivo at 0.15 mg/kg (MDA-MB-436 [10]): > 90%
- inhibition at 10 µM (CYP1A2): ≤ 23%
- fraction unbound [11]: 0.056
- inhibition in vivo at 0.15 mg/kg (MDA-MB-436 [12]): 79%
- remaining at 4 h [13]: 80%
